Measurements published in patent US6759403B2, “Metalloporphyrins and their uses as radiosensitizers for radiation therapy” (Brookhaven Science Associates, LLC, priority 2001, dated 2004).

Experiments:
EMT-6 mammary tumors [1] = test: Boron concentrations in tissues at the time of irradiation (Example 8); assay type: in vivo, BALB/c mice; conditions: ≈400 μg/g body weight CuTCPBr, euthanized the day of irradiation
Text: (§1) In this example, female BALB/c mice (Taconic Farms, Germantown, N.Y.) (20-25 g) were used in radiotherapy studies to compare tumor control effects in mice bearing EMT-6 mammary tumors. The EMT-6 leg tumors were formed by mincing freshly removed tumor tissue from mice into fragments no larger than 0.5 mm. The fragments were mixed in a saline solution and implanted subcutaneously (sc) in the legs of mice using an 18-gauge trocar. Tumor fragments were used because in this particular location tumors initiated by cell suspensions tend to spread in a thin subcutaneous layer and invade the subjacent muscle. Using tumor fragments, the tumors are palpable, but thinner on the leg than on the dorsal thorax. In late stage, fragment-initiated tumors can invade muscle tissue but not as frequently as do suspension-initiated tumors.
(§2) At approximately seven days after tumor implantation, the mice were stratified by tumor volume into six (6) matched experimental groups, which included five groups of twelve (12) mice each and a control group of thirty-three (33). Two groups were treated with ≈400 μg/g body weight CuTCPBr and given two doses of 100 kVp x-irradiation x-rays, two groups were treated with only two doses of 100 kVp x-irradiation, one group received CuTCPBr and were euthanized the day of irradiation. The function of the group which was immediately euthanized was to determine the boron concentration in tissues at the time of irradiation. It was not a control group upon which the effectiveness of treatment was compared. The control group of thirty-three mice was not treated at all.
Tumor to blood boron concentration ratios were about 4:1, which is low due to the high blood values. Such a trend was also observed with CuTCPH at high doses of 400 mg/kg.

EMT-6 mammary tumors [2] = test: Radiosensitizer study: tumor control with 100 kVp x-irradiation (Example 8); assay type: in vivo, BALB/c mice; conditions: for % tumor control: 89 days observation
Text: as §1, §2
In all treated groups, single-exposure irradiations were used. For the irradiation procedures, mice were anesthetized with sodium pentobarbital (≈60 μg/gbw i.p.). Each mouse was anesthetized and positioned behind a 1-cm thick lead shield with the tumor-bearing leg extended across a 2-cm aperture in the lead shield in a manner similar to that used in thermal beam irradiation. […]
Tumor volumes ranged from approximately 20-170 mm^3 in each of the five groups of treated mice. Tumor dimensions were measured 2-3 times per week and mice were euthanized either when calculated tumor volumes (x^2y/2, where x is the shorter surface dimension) exceeded 500 mm^3 or when skin ulceration was observed. Mice were weighed when the tumors were measured, except during the first week, when they were weighed daily. […]
Mice were euthanized at various time points due to tumor overgrowth. The effectiveness of the treatments was measured by the “% tumor control.” The % tumor control is defined as the number of mice whose tumors were “cured” divided by the total number of mice in a particular dose group. […]

Substance: copper octabromotetracarboranylphenylporphyrin [CuTCPBr]
- Boron Concentration, Blood (EMT-6 mammary tumors [1]): 68 (19) μg/g
- Boron Concentration, Liver (EMT-6 mammary tumors [1]): 725 (72) μg/g
- Boron Concentration, Muscle (EMT-6 mammary tumors [1]): 12 (3) μg/g
- Boron Concentration, Skin (EMT-6 mammary tumors [1]): 20 (4.3) μg/g
- Boron Concentration, Tumor (EMT-6 mammary tumors [1]; leg tumor): 277 (45) μg/g
- dose modification factor (EMT-6 mammary tumors [2]; CuTCPBr in combination with x-irradiation): > 1.5
- radiosensitizing effect (EMT-6 mammary tumors [2]; single dose x-irradiation in the presence of CuTCPBr): clear radiosensitizing effect
- % tumor control (EMT-6 mammary tumors [2]; ≈400 μg/g CuTCPBr plus single-dose 25 Gy 100 kVp x-rays, x-rays alone 25.0%): 41.7%
- % tumor control (EMT-6 mammary tumors [2]; ≈400 μg/g CuTCPBr plus single-dose 35 Gy 100 kVp x-rays, x-rays alone 33.3%): 66.7%
